According to ChEMBL document CHEMBL1147943, “Antiproliferative activity of 4-chloro-5,6-dihydro-2H-pyrans. Part 2: Enhancement of drug cytotoxicity” (2007):

What was measured:
Format in all cases: functional
Conditions in all cases: for CC50: read-out: LC50 (the source's name)
SW1573 = experiment: Antiproliferative activity against human SW1573 cells
WiDr = experiment: Antiproliferative activity against human WiDr cells
A2780 = experiment: Antiproliferative activity against human A2780 cells

With ClC1=CC(C2CCCCC2)OCC1 (centres undefined) as the compound, how does the GI50 (SW1573) read?
The GI50 was 26 µM.

And the GI50 (WiDr)?
The GI50 was 100 µM.

And the GI50 (A2780)?
The GI50 was 20 µM.

For CC(C)CC1C=C(Cl)CCO1 (centres undefined), which GI50 (SW1573) is on record?
The GI50 was greater than 100 µM.

And the GI50 (WiDr)?
The GI50 was greater than 100 µM.

What about the GI50 (A2780) of the same compound?
The GI50 was greater than 100 µM.

What does the source list for ClC1=CC(CCC=C(Br)Br)OCC1 (centres undefined)?
GI50 (SW1573): 30 µM; TGI (SW1573): 92 µM; GI50 (WiDr): 23 µM; TGI (WiDr): 57 µM; CC50 (WiDr): 96 µM; GI50 (A2780): 16 µM; TGI (A2780): 53 µM; CC50 (A2780): 76 µM

Which results are given for C[Si](C)(C)C1=C(Cl)C[C@H](Cc2ccccc2)O[C@@H]1C1CCCCC1?
GI50 (SW1573): 30 µM; GI50 (WiDr): 62 µM; TGI (WiDr): 88 µM; GI50 (A2780): 34 µM; TGI (A2780): 78 µM

Which results are given for CC[C@H]1CC(Cl)=C([Si](C)(C)C)[C@@H](C2CCCCC2)O1?
GI50 (SW1573): 22 µM; TGI (SW1573): 49 µM; CC50 (SW1573): 91 µM; GI50 (WiDr): 29 µM; TGI (WiDr): 73 µM; CC50 (WiDr): 95 µM; GI50 (A2780): 16 µM; TGI (A2780): 35 µM; CC50 (A2780): 75 µM

Which results are given for C#CCC[C@H]1O[C@@H](C)[C@H](C)C(Cl)=C1[Si](C)(C)C?
GI50 (SW1573): 19 µM; TGI (SW1573): 37 µM; CC50 (SW1573): 75 µM; GI50 (WiDr): 24 µM; TGI (WiDr): 68 µM; CC50 (WiDr): 85 µM; GI50 (A2780): 21 µM; TGI (A2780): 39 µM; CC50 (A2780): 75 µM

With C[Si](C)(C)C1=C(Cl)C[C@H](C2CCCCC2)O[C@@H]1C1CCCCC1 as the compound, how does the GI50 (SW1573) read?
The GI50 was 23 µM.

What about the TGI (SW1573) of the same compound?
The TGI was 48 µM.

And the CC50 (SW1573)?
The CC50 was 88 µM.

And the GI50 (WiDr)?
The GI50 was 30 µM.

And the TGI (WiDr)?
Its TGI is 81 µM.

And the CC50 (WiDr)?
Its CC50 is 97 µM.

What about the GI50 (A2780) of the same compound?
The GI50 was 22 µM.

What about the TGI (A2780) of the same compound?
Its TGI is 46 µM.

And the CC50 (A2780)?
The CC50 was 90 µM.

With C#CCCC1C=C(Cl)CCO1 (centres undefined) as the compound, how does the GI50 (SW1573) read?
Its GI50 is 41 µM.

What about the GI50 (WiDr) of the same compound?
The GI50 was greater than 100 µM.

What about the GI50 (A2780) of the same compound?
Its GI50 is 37 µM.

For C[C@H]1CC(Cl)=C[C@@H](C2CCCCC2)O1, which GI50 (SW1573) is on record?
The GI50 was 12 µM.

And the TGI (SW1573)?
Its TGI is 43 µM.

And the GI50 (WiDr)?
The GI50 was 65 µM.

And the GI50 (A2780)?
Its GI50 is 19 µM.

What about the TGI (A2780) of the same compound?
Its TGI is 38 µM.

And the CC50 (A2780)?
The CC50 was 79 µM.

Which GI50 (SW1573) does the source give for C[C@@H]1O[C@H](C2CCCCC2)C([Si](C)(C)C)=C(Cl)[C@H]1C here?
Its GI50 is 20 µM.

What about the TGI (SW1573) of the same compound?
The TGI was 41 µM.

And the CC50 (SW1573)?
Its CC50 is 76 µM.

And the GI50 (WiDr)?
The GI50 was 42 µM.

And the TGI (WiDr)?
The TGI was 84 µM.

And the GI50 (A2780)?
The GI50 was 19 µM.

And the TGI (A2780)?
The TGI was 38 µM.

And the CC50 (A2780)?
The CC50 was 77 µM.

For C=CCC[C@H]1O[C@@H](C)[C@H](C)C(Cl)=C1[Si](C)(C)C, which GI50 (SW1573) is on record?
Its GI50 is 23 µM.

And the TGI (SW1573)?
The TGI was 55 µM.

What about the CC50 (SW1573) of the same compound?
Its CC50 is 92 µM.

And the GI50 (WiDr)?
Its GI50 is 37 µM.

What about the GI50 (A2780) of the same compound?
Its GI50 is 17 µM.

And the TGI (A2780)?
Its TGI is 36 µM.

What about the CC50 (A2780) of the same compound?
The CC50 was 19 µM.

Which results are given for ClC1=CC(CCCCCCCCCCC2C=C(Cl)CCO2)OCC1 (centres undefined)?
GI50 (SW1573): 14 µM; TGI (SW1573): 36 µM; CC50 (SW1573): 85 µM; GI50 (WiDr): 20 µM; TGI (WiDr): 61 µM; CC50 (WiDr): 89 µM; GI50 (A2780): 8.6 µM; TGI (A2780): 25 µM; CC50 (A2780): 65 µM

What does the source list for C[C@@H]1O[C@H](CCC=C(Br)Br)C([Si](C)(C)C)=C(Cl)[C@H]1C?
GI50 (SW1573): 22 µM; TGI (SW1573): 43 µM; CC50 (SW1573): 87 µM; GI50 (WiDr): 25 µM; TGI (WiDr): 90 µM; GI50 (A2780): 16 µM; TGI (A2780): 33 µM; CC50 (A2780): 70 µM

Which results are given for C[Si](C)(C)C1=C(Cl)C[C@H](Cc2ccccc2)O[C@@H]1CCCCCCCCCC1C=C(Cl)CCO1 (some centres undefined)?
GI50 (SW1573): 30 µM; TGI (SW1573): 68 µM; GI50 (WiDr): 67 µM; GI50 (A2780): 23 µM; TGI (A2780): 47 µM; CC50 (A2780): 96 µM

How did the GI50 (SW1573) turn out when CC[C@@H](C)[C@H]1O[C@@H](C)CC(Cl)=C1[Si](C)(C)C was run?
Its GI50 is greater than 100 µM.

What about the GI50 (WiDr) of the same compound?
Its GI50 is greater than 100 µM.

What about the GI50 (A2780) of the same compound?
The GI50 was greater than 100 µM.

C[C@H]1CC(Cl)=C([Si](C)(C)C)[C@@H](C2CCCCC2)O1 was tested. Which GI50 (SW1573) did it give?
Its GI50 is 16 µM.

And the TGI (SW1573)?
Its TGI is 31 µM.

What about the CC50 (SW1573) of the same compound?
Its CC50 is 62 µM.

And the GI50 (WiDr)?
The GI50 was 15 µM.

And the TGI (WiDr)?
Its TGI is 33 µM.

And the CC50 (WiDr)?
Its CC50 is 74 µM.

What about the GI50 (A2780) of the same compound?
The GI50 was 17 µM.

And the TGI (A2780)?
The TGI was 32 µM.

What about the CC50 (A2780) of the same compound?
The CC50 was 61 µM.

For CC(C)CC1OCCC(Cl)=C1[Si](C)(C)C (centres undefined), which GI50 (SW1573) is on record?
The GI50 was 10 µM.

And the TGI (SW1573)?
Its TGI is 28 µM.

And the CC50 (SW1573)?
Its CC50 is 65 µM.

And the GI50 (WiDr)?
Its GI50 is 20 µM.

And the TGI (WiDr)?
The TGI was 39 µM.

What about the CC50 (WiDr) of the same compound?
The CC50 was 79 µM.

And the GI50 (A2780)?
Its GI50 is 27 µM.

And the TGI (A2780)?
The TGI was 66 µM.

And the CC50 (A2780)?
Its CC50 is 92 µM.
